Key:
[1] = CT26 syngeneic colon cancer model, AhR antagonist with PD-L1 antibody; type: in vivo; conditions: female, Balb/c, mouse, in vivo, po; CT26 model, dose 10 mg/kg
[2] = test system: CT26 cells implanted subcutaneously into Balb/c mice; experiment: as above; type: in vivo
[3] = In vivo PK study in male CD1 mice; conditions: for AUC(0-t): read-out: AUCLast Mean
Protocol: (§1) The studies were conducted in male Sprague Dawley rats, three rats per group, or male CD1 mice, three mice per group. Compounds were dosed 1.0 mg/Kg i.v. (vehicle ethanol: % PEG400 in deionized water, in proportions suitable for dosing a clear solution) and 3.0 mg/kg or 10 mg/kg p.o. (vehicle: 1% methyl cellulose: 1,500 cP in DI water (w/v)). A11 animals had free access to food and water. Rat i.v. PK time points: Plasma: 0.083, 0.25, 0.5, 1, 2, 4, 8 and 24 h; Rat p.o. PK time points: Plasma: 0.25, 0.5, 1, 2, 4, 8 and 24 h. Mouse i.v. PK time points: Plasma: 0.083, 0.25, 0.5, 1, 2, 4, 8, 24, and 48 h; Mouse p.o. PK time points: Plasma: 0.25, 0.5, 1, 2, 4, 8, 24, and 48 h. Concentrations of compound in the plasma samples were analyzed using a LC-MS/MS method. WinNonlin (Phoenix™, version 6.1) or other similar software was used for pharmacokinetic calculations.

[4] = In vivo PK study in male Sprague Dawley rats; conditions: for AUC(0-t): read-out: AUCLast Mean
Protocol: as §1

[5] = male, CD1, mouse, plasma, mice, 1 mg/kg IV
[6] = male, CD1, mouse, plasma, mice, 10 mg/kg PO
[7] = male, Sprague Dawley, rat, plasma, rats, 1 mg/kg IV
[8] = male, Sprague Dawley, rat, plasma, rats, PO, dosage of 3 mg/kg

## C[C@@H](CO)n1cnc2c(-c3cccnc3)nc(-c3ccc(C(F)(F)F)cn3)cc2c1=O [Compound 46, (S)-3-(1-hydroxypropan-2-yl)-8-(pyridin-3-yl)-6-(5-(trifluoromethyl)pyridin-2-yl)pyrido[3,4-d]pyrimidin-4(3H)-one]
[1]
  Cmax: 17.3 µM
[2]; CT26 model, dose 10 mg/kg
  Cmin: 12,350 nm
[2]; FIG. 12, 10 mg/kg p.o. once a day over 14 days with anti-PD-L1 antibody 10 mg/kg IP every 3 days
  tumor volume, coadministration with PD-L1 antibody: reduction in tumor volume
[2]; FIG. 13, 10 mg/kg p.o. once a day over 14 days with anti-PD-L1 antibody 10 mg/kg IP every 3 days
  tumor weight upon termination of study, coadministration with PD-L1 antibody: reduction in tumor weight
[3]; in vivo DMPK profile, mouse
  Mouse CL (% Qh): 2 % Qh
[3]; [5]
  C0: 470 ng/mL
  AUC(0-t): 8400 ng·h/mL
[3]; male, CD1, mouse, plasma, mice, 1 mg/kg IV, read-out: T1/2 Mean (converted)
  half-life: 15.7 h
[3]; [6]
  Cmax: 2370 ng/mL
  AUC(0-t): 67700 ng·h/mL
[3]; male, CD1, mouse, plasma, mice, 10 mg/kg PO, read-out: Bioavailability
  bioavailability: 80.6%
[3]; male, CD1, mouse, plasma, mice, 10 mg/kg PO, read-out: T1/2 Mean (converted)
  half-life: 8 h
[3]; male, CD1, plasma, intravenous, 1 mg/kg, in vivo DMPK profile, mouse, read-out: Mouse CL
  clearance: 1.8 mL/min/kg
[3]; male, CD1, plasma, intravenous, 1 mg/kg, in vivo DMPK profile, mouse, read-out: Mouse T1/2 (converted)
  half-life: 15.7 h
[3]; male, CD1, plasma, intravenous, 1 mg/kg, in vivo DMPK profile, mouse, read-out: Mouse Vss
  Vd: 2.3 L/kg
[3]; male, CD1, plasma, oral, 10 mg/kg, in vivo DMPK profile, mouse, read-out: Mouse % F
  bioavailability: 80.6%
[3]; mice, 1 mg/kg IV
  CI Mean: 29.3 mL/min/kg
[4]; in vivo DMPK profile, rat
  Rat CL (% Qh): 9 % Qh
[4]; male, Sprague Dawley, plasma, intravenous, 1 mg/kg, in vivo DMPK profile, rat, read-out: Rat CL
  clearance: 6.7 mL/min/kg
[4]; male, Sprague Dawley, plasma, intravenous, 1 mg/kg, in vivo DMPK profile, rat, read-out: Rat T1/2 (converted)
  half-life: 5.6 h
[4]; male, Sprague Dawley, plasma, intravenous, 1 mg/kg, in vivo DMPK profile, rat, read-out: Rat Vss
  Vd: 3.1 L/kg
[4]; male, Sprague Dawley, plasma, oral, 3 mg/kg, in vivo DMPK profile, rat, read-out: Rat % F
  bioavailability: 89%
[4]; [7]
  C0: 301 ng/mL
  AUC(0-t): 2350 ng·h/mL
[4]; male, Sprague Dawley, rat, plasma, rats, 1 mg/kg IV, read-out: AUCInf Mean
  AUC(0-inf): 2490 ng·h/mL
[4]; male, Sprague Dawley, rat, plasma, rats, 1 mg/kg IV, read-out: T1/2 Mean (converted)
  half-life: 5.65 h
[4]; [8]
  Cmax: 462 ng/mL
  Tmax: 3.33 h
  AUC(0-t): 6280 ng·h/mL
[4]; male, Sprague Dawley, rat, plasma, rats, PO, dosage of 3 mg/kg, read-out: Bioavailability
  bioavailability: 89%
[4]; male, Sprague Dawley, rat, plasma, rats, PO, dosage of 3 mg/kg, read-out: T1/2 Mean (converted)
  half-life: 5.73 h
[4]; rats, 1 mg/kg IV
  CI Mean: 112 mL/min/kg

From US20230295152A1 (SENDA BIOSCIENCES, INC., priority 2019, published 2023)
